Assay results published in paper PMC4220016, “The binding characteristics and orientation of a novel radioligand with distinct properties at 5-HT3A and 5-HT3AB receptors” (Neuropharmacology, 2014).
“And” between values parts separate entries of the source, which are not always exact repeats. Equal values may be shown once. Read-outs that look alike come from different tables or passages of the source.

What was measured:
5-HT3A receptor F226C = molecular target: T1, 5-HT3A receptor F226C (Homo sapiens, UniProt P46098, F221C); assay: Saturation binding of [^3H]VUF10166 at 5-HT3A receptor mutant; conditions: F226C, Loop C; read-out: Kd (nM) Mean ± SEM
T1 construct: expressed in transfected cells; host or cells: HEK 293
Description: (§1) Mutagenesis was performed using the QuikChange method (Agilent Technologies Inc., California, USA) on human 5-HT3A cDNA (accession number: P46098) cloned into pcDNA3.1 (Invitrogen, Paisley, UK). Cysteine residues were substituted for amino acids throughout each of the binding loops A–E (Fig. 1). To facilitate comparisons with previous work, we use the numbering of the equivalent residues in the mouse 5-HT3A subunit; for human numbering 5 should be subtracted from each residue number.
(§2) All data were analysed using GraphPad Prism 4.03. […].

5-HT3A receptor L126C = molecular target: T2, 5-HT3A receptor L126C (Homo sapiens, UniProt P46098, L121C); assay: as above; conditions: L126C, Loop A; read-out: Kd (nM) Mean ± SEM
T2 construct: expressed in transfected cells; host or cells: HEK 293
Description: as §1, §2

5-HT3A receptor Y153C = molecular target: T3, 5-HT3A receptor Y153C (Homo sapiens, UniProt P46098, Y148C); assay: as above; conditions: Y153C, Loop E; read-out: Kd (nM) Mean ± SEM
T3 construct: expressed in transfected cells; host or cells: HEK 293
Description: as §1, §2

5-HT3A receptors = molecular target: T4, 5-HT3A receptors (Homo sapiens, UniProt P46098); assay: biochemical; assay type: binding; design: expressed in transfected cells; host or cells: HEK 293
T4 sequence (P46098 24-478): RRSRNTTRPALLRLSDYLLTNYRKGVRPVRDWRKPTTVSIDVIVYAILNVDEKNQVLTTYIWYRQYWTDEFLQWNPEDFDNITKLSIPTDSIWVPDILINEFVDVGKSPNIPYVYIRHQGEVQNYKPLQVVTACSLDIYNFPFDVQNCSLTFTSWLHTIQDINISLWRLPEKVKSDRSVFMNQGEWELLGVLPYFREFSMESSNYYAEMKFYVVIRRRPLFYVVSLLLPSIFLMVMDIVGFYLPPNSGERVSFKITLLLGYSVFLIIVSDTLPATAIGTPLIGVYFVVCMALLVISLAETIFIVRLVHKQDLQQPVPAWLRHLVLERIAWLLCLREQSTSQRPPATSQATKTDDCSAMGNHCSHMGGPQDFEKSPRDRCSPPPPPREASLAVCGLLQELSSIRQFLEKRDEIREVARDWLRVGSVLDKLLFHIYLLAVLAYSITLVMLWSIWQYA

5-HT3AB receptors = molecular target: T5, 5-HT3AB receptors (Homo sapiens, UniProt O95264+P46098); assay: Kinetic measurements (association, dissociation) at 5-HT3AB receptors; assay type: binding; design: expressed in transfected cells; host or cells: HEK 293; conditions: from kinetic rates, Equ (4), read-out: Kd(nM) (kon/koff)
T5 sequence (P46098 24-478): T4 sequence (P46098 24-478)
T5 sequence (O95264 22-441): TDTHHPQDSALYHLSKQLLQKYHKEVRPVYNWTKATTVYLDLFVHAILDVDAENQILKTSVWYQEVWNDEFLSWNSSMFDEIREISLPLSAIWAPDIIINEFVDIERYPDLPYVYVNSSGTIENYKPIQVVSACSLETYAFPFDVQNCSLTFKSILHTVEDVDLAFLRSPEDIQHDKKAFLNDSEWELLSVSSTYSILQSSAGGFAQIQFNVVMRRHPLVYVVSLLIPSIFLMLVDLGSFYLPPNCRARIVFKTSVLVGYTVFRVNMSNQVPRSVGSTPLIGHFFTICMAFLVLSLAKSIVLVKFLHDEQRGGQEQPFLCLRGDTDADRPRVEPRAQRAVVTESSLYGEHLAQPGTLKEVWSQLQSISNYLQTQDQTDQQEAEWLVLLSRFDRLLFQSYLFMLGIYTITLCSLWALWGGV

T3 sequence (P46098 24-478 Y148C): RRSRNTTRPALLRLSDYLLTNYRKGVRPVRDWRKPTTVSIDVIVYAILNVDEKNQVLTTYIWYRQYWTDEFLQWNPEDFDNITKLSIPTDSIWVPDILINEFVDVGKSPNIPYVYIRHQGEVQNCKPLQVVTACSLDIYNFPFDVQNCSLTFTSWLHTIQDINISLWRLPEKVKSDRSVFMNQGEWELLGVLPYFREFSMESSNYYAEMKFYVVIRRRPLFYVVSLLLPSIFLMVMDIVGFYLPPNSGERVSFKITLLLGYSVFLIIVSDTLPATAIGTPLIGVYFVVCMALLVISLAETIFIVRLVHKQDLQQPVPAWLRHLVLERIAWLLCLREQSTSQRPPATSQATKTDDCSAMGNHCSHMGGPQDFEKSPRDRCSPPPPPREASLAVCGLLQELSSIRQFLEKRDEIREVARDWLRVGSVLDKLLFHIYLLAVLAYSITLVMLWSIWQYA
T2 sequence (P46098 24-478 L121C): as the sequence (P46098 24-478 Y148C) above, with L98C, C125Y counted along it
T1 sequence (P46098 24-478 F221C): as the sequence (P46098 24-478 Y148C) above, with C125Y, F198C counted along it

Compound CN1CCN(c2nc3ccccc3nc2Cl)CC1 [[^3H]VUF10166] [2-chloro-3-(4-[^3H]methylpiperazin-1-yl)quinoxaline] has a Kd (5-HT3A receptor F226C) of 1.59 ± 0.08 nM, a Kd (5-HT3A receptor L126C) of 0.89 ± 0.19 nM and a Kd (5-HT3A receptor Y153C) of 2.03 ± 0.33 nM. It also gave a Kd (5-HT3A receptors; 5-HT3A, tritiated ligand, transfected HEK 293 cells, 0 °C, read-out: Kd (nM) saturation) of 0.18 nM, a Kd (5-HT3A receptors; Wild Type, Table 5 series, read-out: Kd (nM) Mean ± SEM) of 0.21 ± 0.04 nM and a Kd (5-HT3AB receptors; first component) of 0.38 nM. The Kd (5-HT3AB receptors; second component (>3 nM)) was 22 nM and 22.4 nM.
